The source of these data is patent publication US9889155B2, “Enhancer of anti-tumor effect of anti-cancer agent” (priority 2014, dated 2018).

Data set [1] deals with Human colorectal cancer cells (HCT116). Briefly: IC50 of 5-fluorouracil against HCT116 cells with or without sCA particles, cell count (Example 1). Format: cell-based. The note with it: sCA(1) particles added 24 hours before, where used. As for the experimental part:
At 24, 48, and 72 hours after the addition of 5-fluorouracil, the number of cells was counted, and IC50 (concentration of 5-fluorouracil that kills 50% of the cancer cells) values were determined.

For data set [2] the test system is unchanged. Briefly: IC50 of anticancer agents against HCT116 cells with or without sCA particles, cell count at 48 hours (Example 2). The format is cell-based. As to the method: At 48 hours after the addition of each of the anticancer agents, the number of cells was counted, and the IC50 (concentration of 5-fluorouracil that kills 50% of the cancer cells) value was determined.

The test system of data set [3] is human colorectal cancer cell line HT29 subcutaneous tumor. In words: Doxorubicin accumulation in HT29 subcutaneous tumors, IVIS Spectrum fluorescent imaging (Example 7). The format is in vivo, BALB/cA nude mice. The note with it: HT29 tumor mice; doxorubicin hydrochloride 1.5 mg/mouse via tail vein; tumors removed after 2 hours; sCA(2) particles 3 hours before, where used; FIG. 9. As for the experimental part:
At the time when the tumors reached about 10 mm in diameter, the mice were randomly divided into the two groups shown in Table 5, and each group was administered the drug. After 2 hours from the drug administration, tumors were removed from the mice, and doxorubicin hydrochloride accumulated in the tumors was detected by fluorescent imaging using the IVIS Spectrum. For doxorubicin (DOX), detection of fluorescence wavelength has been confirmed by the IVIS Spectrum (FIG. 8).

Where [4] appears, read: Homo sapiens, HCT-116, 48 hours after addition of anticancer agent, With sCA particles, read-out: IC50 (mean ± SD), With sCA particles.
The mark [5] stands for this setting: Homo sapiens, HCT-116, 48 hours after addition of anticancer agent, Without sCA particles, read-out: IC50 (mean ± SD), Without sCA particles.
The mark [6] stands for this setting: 48 hours after addition of anticancer agent, With sCA particles, read-out: IC50 (mean ± SD), With sCA particles.
Where [7] appears, read: 48 hours after addition of anticancer agent, Without sCA particles, read-out: IC50 (mean ± SD), Without sCA particles.

Values after ≈ are worked out from the molar mass of the structure shown. Counter-ions that a name gives are not always drawn.

Take `O=c1[nH]cc(F)c(=O)[nH]1` [5-fluorouracil]: the IC50 in data set [1] (HCT-116, 24 hours after addition of 5-fluorouracil, read-out: IC50 (mean ± SD), After 24 hr) came out at 215 ± 141 µg/mL (≈ 1650 µM); in data set [1] (HCT-116, 48 hours after addition of 5-fluorouracil, read-out: IC50 (mean ± SD), After 48 hr), 4.07 ± 0.473 µg/mL (≈ 31.3 µM); in data set [1] (HCT-116, 72 hours after addition of 5-fluorouracil, read-out: IC50 (mean ± SD), After 72 hr), 2.64 ± 0.696 µg/mL (≈ 20.3 µM); in data set [2] (setting [4]) it was 74.6 ± 10 µM; in data set [2] (setting [5]), 11.7 ± 2 µM.
For `N.N.[Cl][Pt][Cl]` [Cisplatin, cisplatin], the IC50 turned out to be 39.2 ± 2.7 µM in data set [2] (setting [6]) and 31.3 ± 0.9 µM in data set [2] (setting [7]).
As to `CC(=O)O[C@@]12CO[C@@H]1C[C@H](O)[C@@]1(C)C(=O)[C@H](O)C3=C(C)[C@@H](OC(=O)[C@H](O)[C@@H](NC(=O)OC(C)(C)C)c4ccccc4)C[C@@](O)([C@@H](OC(=O)c4ccccc4)[C@H]21)C3(C)C` [Docetaxel, docetaxel], the IC50 in data set [2] (setting [4]) was 0.00917 ± 0.00042 µM; in data set [2] (setting [5]), 0.000353 ± 7e-05 µM.
For the compound `O=C1[O][Pt]2([NH][C@@H]3CCCC[C@H]3[NH]2)[O]C1=O` [Oxaliplatin, oxaliplatin], the IC50 is 31.3 ± 2.2 µM in data set [2] (setting [6]) and 3.7 ± 1.1 µM in data set [2] (setting [7]).
For the compound `COc1cccc2c1C(=O)c1c(O)c3c(c(O)c1C2=O)C[C@@](O)(C(=O)CO)C[C@@H]3O[C@H]1C[C@H](N)[C@H](O)[C@H](C)O1` [doxorubicin hydrochloride], in data set [3], the “doxorubicin accumulated in the tumor (fluorescent imaging)” value is “only a small amount of doxorubicin was detected in the tumor”.

In general, IC50 refers to the point on the concentration scale where inhibition reaches its midpoint.
